“Also recorded” adds a separate entry of the source.
Columns and labels:
[1] = test system: Ras effectors ERK and AKT in DLD-1 cells; experiment: Western blot of downstream RAS signaling (P-ERK, P-AKT, P-MEK) in serum-starved DLD-1 cells; assay type: cell-based, human; settings: 100 μM; for activation of AKT and ERK / relative capacity to activate Ras effectors ERK and AKT among the compounds: DLD-1 serum-starved cells, 3 hours
From the text: DLD-1 (KRASWT/G13D) (clone V15, #HD PAR-086) colorectal adenocarcinoma cell line and DLD-1 knockout of mutant KRAS allele, DLD-1 KO (KRASWT/−) (clone DWT7, #HD105-002), were obtained from Horizon Discovery Ltd. (Cambridge, UK). hTERT-RPE (KRASWT/WT) immortalized retinal pigment epithelial human cell line was obtained from the […] (ATCC). DLD-1 KO cells stably expressing HA-KRAS G12V were previously generated in our laboratory (Cabot et al., 2021). All cells were grown in DMEM-HAM s F12 (1:1) supplemented with 10% foetal bovine serum (Biological Industries, Israel), penicillin, streptomycin, and nonessential amino acids. Cells were tested once per month for mycoplasma contamination.
Cells were seeded in a media containing 10% FBS for 24 hours and then they were serum starved (0.1% FBS) for the next 24 hours. Afterwards, they were incubated with the different compounds during the times specified in each figure. When indicated, also in order to activate downstream KRAS cell signalling, treatment for 10 minutes with EGF (50 ng/mL) (Sigma-Aldrich) was performed.
Proteins were resolved by SDS-PAGE, transferred onto PVDF membranes (Immobilon-P, Millipore) and Western blot was performed as previously described (Cabot et al, Oncogene 2021). The following primary antibodies were used: anti-c-RAF (BD Transduction 610151, 1:500); anti-phospho-c-RAF S338 (Cell Signaling 9427, 1:500); anti-AKT (Cell Signaling 9272, 1:1000); anti-phospho-AKT T308 (Cell Signaling 4056, 1:1000); anti-phospho-MEK1/2 S221 (Cell Signalling […]); anti-p44/42 MAPK (ERK1/2) (Cell Signaling 9102, 1:2000); anti-phospho-p44/42 MAPK(ERK1/2) T202/Y204 (Cell Signaling 4370, 1:2000); anti-HA (Sigma-Aldrich H6908, 1:1000); anti-cleaved-caspase-3 (Asp175) (Cell Signaling 9661, 1:1000); HRP-coupled secondary antibodies used: goat anti-rabbit (BioRad 170-6515, 1:3000) or goat anti-mouse (BioRad 170 6516, 1:3000).
For analysis of RAS signalling, cells were lysed in a buffer containing 67 mM Tris-HCl pH 6.8 and 2% SDS and then the samples were heated at 97° C. for 15 minutes. Protein concentration of the lysates was assessed using the Lowry method. An aliquot of […] of protein per sample was loaded onto the gels.
We first analyzed the effect of P14 on the activation of downstream RAS signaling pathways (RAF/MEK/ERK and PI3K/AKT) in DLD-1 cells (CRC cells carrying one oncogenic KRAS allele). To this end, DLD-1 serum-starved cells (0.1% FCS) were treated with P14 (100 μM) at different times, and activation of AKT and ERK was evaluated by Western blot. […] As a 3-hour treatment was associated with major effects, we chose this duration for the subsequent experiments with the other compounds. Next, DLD-1 serum-starved cells were treated with P14A-P14C at 100 μM for 3 hours and activation of AKT and ERK was assessed as above. […] The kinetics of RAS downstream signaling was analyzed in P14B-treated cells compared to 10% FBS serum.

[2] = test system: Panc-1 cells; experiment: Cell Titre Glo viability assay, Panc-1; assay type: cell-based; settings: Panc-1 cells (KRAS mutant G12D), after five days of treatment
Experimental: In the next study, compounds were tested against cancer cells: pancreatic cancer cells (Panc-1), ovarian cancer cells (SW626) and uterine sarcoma cells (Mes-sa). The data generated using Cell Titre Glo® assays under standard conditions where the cells are grown in 384 well plates, then placed under continuous pressure of treatment for the relevant time period before being halted and assayed. The data collected is then plotted for analysis.
FIG. […]

| IC50 [2] [µM] | SMILES | activation of AKT and ERK [1] | relative capacity to activate Ras effectors ERK and AKT among the compounds [1] | P-ERK and P-AKT levels, time course ([1]; DLD-1 serum-starved cells (0.1% FCS), 3 and 6 hours) | response among the molecules tested [2] |
| --- | --- | --- | --- | --- | --- |
| – | Cc1n[nH]c(O)c1C(c1ccc(F)cc1)c1c(C)n[nH]c1O [Example P14A] | increase AKT and/or ERK signalling | highest activation of both Ras effectors | – | – |
| – | Cc1n[nH]c(O)c1C(c1ccc2c(c1)OCO2)c1c(C)n[nH]c1O [Example P14C] | activated AKT and ERK kinases; also recorded: increase AKT and/or ERK signalling | – | – | – |
| – | Cc1n[nH]c(O)c1C(c1ccccc1OCc1ccc(Cl)cc1)c1c(C)n[nH]c1O [Example P14] | activated AKT and ERK kinases; also recorded: increase AKT and/or ERK signalling | most efficient | significantly increased P-ERK and P-AKT | – |
| < 20 | COc1ccc(C(c2c(C)n[nH]c2O)c2c(C)n[nH]c2O)cc1OCCc1ccc(Cl)cc1 [P14(J)SD] | – | – | – | best response |

Source: patent US20260217656A1, “Compounds Affecting KRAS” (UNIVERSITAT DE BARCELONA, priority 2022, published 2026)
